Data taken from patent US9119401B2, “Plant glutamine synthetase inhibitors and methods for their identification” (priority 2012, dated 2015).
Where two headings read alike, the source gives them in different places.

Columns and labels:
[1] = test system: recombinant glutamine synthetase from Lotus japonicas; experiment: Biosynthetic assay for plant glutamine synthetase; format: biochemical; settings: for effect on plant glutamate synthetase activity (in words): text summary of Table 5, 40 μg/ml
Protocol: The biosynthetic assay for plant glutamine synthetase was carried out as follows. This assay uses following solutions: reaction buffer (pH 6.8, 75 mM HEPES, 300 mM L-glutamic acid, 11 mM NH4Cl, 40 mM MgCl2), recombinant […] GS from Lotus japonicas (Betti et al., 2006) working solution (pH 6.8, 50 mM ATP), reaction quenching and color formation solution (12% w/v L-ascorbic acid in 1 N HCl solution and 2% w/v sodium molybdate in DD H2O), color fixing solution (1% sodium citrate tribasic dehydrate in 1% acetic acid in DD H2O), and blank solution (420 mM EDTA solution).
Commercial herbicide (i.e., glufosinate or DL-Phosphinotricin) was used a positive control. EDTA was used as a negative control. In this experiment, we used the active ingredient(s) in the extracts from Burkholderia Spp. (internal labeled as A396 strain or MBI-206 and/or MBI-010).

Burkholderia A396 = format: cell-based, Burkholderia sp. A396; settings: for Susceptible: Muller-Hinton medium, 72-hour incubation at 25° C.; for Susceptibility of Burkholderia A396 (in words): Table 2
Protocol: Antibiotic susceptibility of Burkholderia A396 is tested using antibiotic disks on Muller-Hinton medium as described in PML Microbiological's technical data sheet #535.

B. cepacia isolates = settings: 366 B. cepacia isolates, Pitt et al., 1996; cited from earlier work
[2] = test system: B. cepacia complex strains isolated from cystic fibrosis patients; settings: of 2,621 B. cepacia complex strains, Zhou et al., 2007; cited from earlier work
[3] = Table 5, pure compounds of MBI-206 and fractions, 40 μg/ml

In the case of `CP(=O)(O)CCC(N)C(=O)O` (racemic) [DL-Phosphinotricin], the “GS inhibition (%) Plate 1” value ([1]; Study #2 (MBI-206), 100 μg/ml) is reported as 68.8%, the “GS inhibition (%) Plate 2” value ([1]; Study #2 (MBI-206), 100 μg/ml) is reported as 71.5% and the “GS inhibition (%)” value ([1]; Table 5, pure compounds of MBI-206 and fractions, 100 μg/ml) is reported as 70.8%. The “GS inhibition (%)” value ([1]; study #1 (MBI-010), 200 μg/ml final concentration) was 70% and the “GS inhibition (%)” value ([1]; study #1 (MBI-010), 200 μg/ml final concentration, listed as DL-phosphinotricin) was “about 70%”.
In the case of `CC1(C)S[C@@H]2[C@H](NC(=O)[C@H](N)c3ccccc3)C(=O)N2[C@H]1C(=O)O` [Ampicillin], the Susceptible (Burkholderia A396; disk 10 ug) is reported as “−”.
For `CO/N=C(\C(=O)N[C@@H]1C(=O)N2C(C(=O)O)=C(COC(N)=O)CS[C@H]12)c1ccco1` [Cefuroxime], the Susceptible (Burkholderia A396; disk 30 ug) is listed as “−” and the “antibiotic resistance of isolates (in words)” value (B. cepacia isolates) is listed as “most of them are resistant”.
In the case of `O=C(N[C@H](CO)[C@H](O)c1ccc([N+](=O)[O-])cc1)C(Cl)Cl` [Chloramphenicol], the “Susceptibility of Burkholderia A396 (in words)” value (from here on “Susceptibility”) (Burkholderia A396) is listed as “susceptible”, the Susceptible (Burkholderia A396; disk 30 ug) is listed as “++” and the strains resistant [2] is listed as 85%. For the same molecule, the strains susceptible [2] was 15%.
In the case of `O=C(O)c1cn(C2CC2)c2cc(N3CCNCC3)c(F)cc2c1=O` [Ciprofloxacin], the “Susceptibility” value (Burkholderia A396) is given as “susceptible”, the Susceptible (Burkholderia A396; disk 5 ug) is given as “++” and the strains susceptible [2] is given as 5%. For the same molecule, the “antibiotic resistance of isolates (in words)” value (B. cepacia isolates) was “most of them are resistant”.
For `CC[C@H]1OC(=O)[C@H](C)[C@@H](O[C@H]2C[C@@](C)(OC)[C@@H](O)[C@H](C)O2)[C@H](C)[C@@H](O[C@@H]2O[C@H](C)C[C@H](N(C)C)[C@H]2O)[C@](C)(O)C[C@@H](C)C(=O)[C@H](C)[C@@H](O)[C@]1(C)O` [Erythromycin], the Susceptible (Burkholderia A396; disk 15 ug) was “−”.
For `C/C=C1\NC(=O)[C@H]2CSSCC/C=C/[C@H](CC(=O)N[C@H](C(C)C)C(=O)N2)OC(=O)[C@H](C(C)C)NC1=O` [FR901228 (iii), FR901228], the “GS inhibition (%)” value [1, 3] was 57% and the “effect on plant glutamate synthetase activity (in words)” value (shortened to “effect”) [1] was “inhibitory effect”.
In the case of `C[C@@H](O)[C@H]1C(=O)N2C(C(=O)O)=C(SCCN=CN)C[C@H]12` [Imipenem], the Susceptible (Burkholderia A396; disk 10 ug) is reported as “+++”.
With `NC[C@H]1O[C@H](O[C@H]2[C@H](O)[C@@H](O[C@H]3O[C@H](CO)[C@@H](O)[C@H](N)[C@H]3O)[C@H](N)C[C@@H]2N)[C@H](O)[C@@H](O)[C@@H]1O` [Kanamycin] the Susceptible (Burkholderia A396; disk 30 ug) was “+++”.
For `CN(C)[C@@H]1C(O)=C(C(N)=O)C(=O)[C@@]2(O)C(O)=C3C(=O)c4c(O)cccc4[C@@](C)(O)[C@H]3[C@H](O)[C@@H]12` [Oxytetracycline], the Susceptible (Burkholderia A396; disk 30 ug) was “−”.
In the case of `CCN1CCN(C(=O)N[C@@H](C(=O)N[C@@H]2C(=O)N3[C@@H]2SC(C)(C)[C@@H]3C(=O)O)c2ccccc2)C(=O)C1=O` [Piperacillin], the “Susceptibility” value (Burkholderia A396) is reported as “susceptible” and the Susceptible (Burkholderia A396; disk 100 ug) is reported as “+++”.
With `[H]/N=C(/N)N[C@H]1[C@H](O)[C@@H](O)[C@H](O[C@@H]2O[C@@H](C)[C@](O)(C=O)[C@H]2O[C@@H]2O[C@@H](CO)[C@H](O)[C@@H](O)[C@@H]2NC)[C@@H](N/C(N)=N\[H])[C@@H]1O` [Streptomycin] the Susceptible (Burkholderia A396; disk 10 ug) was “−”.
In the case of `COC(=O)c1nc(CC(C)C)oc1-c1c[nH]c2ccccc12` [Templazole A (i), templazole A], the “GS inhibition (%)” value [1, 3] is reported as 30% and the “effect” value [1] is reported as “inhibitory effect”.
With `CN(C)[C@@H]1C(O)=C(C(N)=O)C(=O)[C@@]2(O)C(O)=C3C(=O)c4c(O)cccc4[C@@](C)(O)[C@H]3C[C@@H]12` [Tetracycline] the Susceptible (Burkholderia A396; disk 30 ug) was “−”.
In the case of Gentamicin, the Susceptible (Burkholderia A396; disk 10 ug) is reported as “−”.
In the case of Penicillin, the Susceptible (Burkholderia A396; disk 10 ug) is reported as “−”.
With templazole B [Templazole B (ii)] the “GS inhibition (%)” value [1, 3] was 46% and the “effect” value [1] was “inhibitory effect”.
